Measured values published in publication PMC9739180, “Discovery of a Flavonoid FM04 as a Potent Inhibitor to Reverse P-Glycoprotein-Mediated Drug Resistance in Xenografts and Improve Oral Bioavailability of Paclitaxel” (International Journal of Molecular Sciences, 2022).
Where two headings read alike, the source gives them in different places.

Experiment: Pharmacokinetics of PTX and FM04 after oral co-administration
Type: in vivo, Balb/c mice
Settings: mice
Procedure: Pharmacokinetics (PK) study of PTX or FM04 after their oral co-administration. […] PTX (20 or 70 mg/kg) was orally co-administered with FM04 (0, 22 or 45 mg/kg) to mice, plasma was collected at 30, 60, 120, 240 and 420 min, respectively. […] FM04 (45 or 100 mg/kg) was orally co-administered with PTX (0, 50 or 70 mg/kg) to mice, plasma was collected at 30, 60, 120, 240 and 420 min, respectively. The concentration FM04 at each time point was determined by UPLC-MS/MS Pharmacokinetic parameter AUC was calculated by the pharmacokinetic software-Summit® PK solutions 2.0 (Summit Research Service, Ashland, Wilmington, DE, USA).
PTX drug solution was prepared in 5% Cremophor EL, 5% ethanol and 90% saline on the day of the experiment. PTX + FM04 drug solution was prepared in 7% Cremophor EL, 8% ethanol and 85% saline on the day of the experiment. PTX drug solution or PTX + FM04 mixture drug solution was administered to the Balb/c mice (female, 4–6 week-old) via oral gavage. Blood was collected via cardiac puncture at scheduled time points (10, 30, 60, 120, 240 and 420 min) under deep anesthesia. All animals were terminated at the end of the experiment. Plasma concentrations of FM04 and PTX were detected using UPLC-MS/MS. Plasma concentration–time profiles were analyzed by non-compartmental analysis (NCA). The area under the plasma concentration–time curve by trapezoid rules (AUC) (from 0 to infinity), the terminal half-life (t1/2β), initial half-life (t1/2α), mean residence time (MRT), maximum observed concentration (Cmax) and time to maximum concentration (Tmax) were calculated by PK Solutions 2.0 (Summit Research Service, Ashland, Wilmington, DE, USA).
PTX and its internal standard (IS) separation were performed on Agilent 1290 series UPLC coupled with Agilent 6460 Triple quadrupole. The calibration curve of PTX was constructed by quantifying the known amount of PTX that spiked to blank mice plasma following identical sample preparation. The mass spectrometer was configured in ESI + ionization mode monitoring MRM ion transition of m/z 854 > 286 (PTX) and m/z 882 > 314 (IS). Source parameters were as follows, gas temp (350 °C), gas flow (8 L/min), nebulizer (35 psi) and capillary (4000 V). UPLC chromatographic separation was performed on Waters Acquity UPLC BEH C18 (1.7 µM, 2.1 × 50 mm) with a 5 min gradient elution of 30% acetonitrile with 0.1% formic acid to 76% ACN with 0.1% formic acid. Milli-Q with 0.1% formic acid was used as the aqueous phase. Each separation and re-equilibration were completed in 9 min.
Detection and quantification of FM04 and its internal standard were done by using the UPLC-MS/MS system consist of an Acquity Waters UPLC interfaced with a triple quadrupole mass spectrometer (Micromass model Quattro Ultima) equipped with an electrospray ionization source in positive mode. The desolvation temperature, capillary voltage, cone gas and desolvation gas were 350 °C, 3 Kv, 150 L/h and 600 L/h, respectively. Multiple reaction monitoring (MRM) was set to monitor the transitions from 416 > 239 (FM04) and 423 > 239 (IS). Chromatography separation was done with an Acquity UPLC BEH C8 column (2.1 × 50 mm, 1.7 µM). The mobile phase consisted of methanol + 0.1% formic acid (solvent B) and Milli-Q water + 0.1% formic acid (solvent A). The flow rate was 0.4 mL/min. The initial condition was 90% solvent A and 10% solvent B. After 1 min elution by the initial condition, a linear gradient was performed with solvent B increasing from 10% to 100% for 10 min. Afterwards, the mobile phase was restored to the initial condition for re-equilibration. The total analysis time was 20 min per injection.

[1] = oral, PTX 20 mg/kg + FM04 45 mg/kg, relative to 20 mg/kg PTX alone
[2] = oral, PTX 70 mg/kg + FM04 22 mg/kg, relative to 70 mg/kg PTX alone
[3] = oral, PTX 70 mg/kg + FM04 45 mg/kg, relative to 70 mg/kg PTX alone

For `O=c1cc(-c2ccc(OCCOCCNCc3ccccc3)cc2)oc2ccccc12` [FM04, 2-(4-(2-(2-(benzylamino)ethoxy)ethoxy)phenyl)-4H-chromen-4-one], the AUC(0-t) (female, Balb/c, mouse, plasma, po, 100 mg/kg, oral, FM04 100 mg/kg, PTX 0 mg/kg, read-out: FM04 AUC(0-t) (converted)) was 1820 ng·h/mL, the Cmax (female, Balb/c, mouse, plasma, po, 100 mg/kg, oral, FM04 100 mg/kg, PTX 0 mg/kg, read-out: FM04 Cmax) was 1020 ng/mL and the Tmax (female, Balb/c, mouse, plasma, po, 100 mg/kg, oral, FM04 100 mg/kg, PTX 0 mg/kg, read-out: FM04 Tmax (converted)) was 30 min. The AUC(0-t) (female, Balb/c, mouse, plasma, po, oral, FM04 45 mg/kg + PTX 50 mg/kg, read-out: FM04 AUC(0-t) (converted)) was 645 ng·h/mL, the Cmax (female, Balb/c, mouse, plasma, po, oral, FM04 45 mg/kg + PTX 50 mg/kg, read-out: FM04 Cmax) was 754 ng/mL and the Tmax (female, Balb/c, mouse, plasma, po, oral, FM04 45 mg/kg + PTX 50 mg/kg, read-out: FM04 Tmax (converted)) was 30 min. For the same molecule, the AUC(0-t) (female, Balb/c, mouse, plasma, po, oral, FM04 45 mg/kg + PTX 70 mg/kg, read-out: FM04 AUC(0-t) (converted)) was 740 ng·h/mL, the Cmax (female, Balb/c, mouse, plasma, po, oral, FM04 45 mg/kg + PTX 70 mg/kg, read-out: FM04 Cmax) was 481 ng/mL and the Tmax (female, Balb/c, mouse, plasma, po, oral, FM04 45 mg/kg + PTX 70 mg/kg, read-out: FM04 Tmax (converted)) was 60 min. The concentration at 720 min (female, Balb/c, mouse, plasma, FM04 100 mg/kg oral alone, at 720 min, read-out: minimum plasma concentration of FM04) was 43 ng/mL and the “oral absorption of FM04” value (FM04 100 mg/kg oral alone) was less than 0.005%.

Work on `CC(=O)O[C@H]1C(=O)[C@@]2(C)[C@H]([C@H](OC(=O)c3ccccc3)[C@]3(O)C[C@H](OC(=O)[C@H](O)[C@@H](NC(=O)c4ccccc4)c4ccccc4)C(C)=C1C3(C)C)[C@]1(OC(C)=O)CO[C@@H]1C[C@@H]2O` [PTX, paclitaxel] yielded an AUC (female, Balb/c, mouse, plasma, po, 20 mg/kg, oral, PTX 20 mg/kg + FM04 45 mg/kg) of 9400 ng·h/mL, a Cmax (female, Balb/c, mouse, plasma, po, 20 mg/kg, oral, PTX 20 mg/kg, FM04 0 mg/kg, read-out: PTX Cmax) of 134 ng/mL and an AUC (female, Balb/c, mouse, plasma, po, 20 mg/kg, PTX 20 mg/kg alone) of 143 ng·h/mL. For the same molecule, the AUC (female, Balb/c, mouse, plasma, po, 70 mg/kg, oral, PTX 70 mg/kg + FM04 45 mg/kg) was 30000 ng·h/mL, the AUC(0-t) (female, Balb/c, mouse, plasma, po, 70 mg/kg, oral, PTX 70 mg/kg, FM04 0 mg/kg, read-out: PTX AUC(0-t) (converted)) was 523 ng·h/mL and the Cmax (female, Balb/c, mouse, plasma, po, 70 mg/kg, oral, PTX 70 mg/kg, FM04 0 mg/kg, read-out: PTX Cmax) was 186 ng/mL. The AUC (female, Balb/c, mouse, plasma, po, 70 mg/kg, PTX 70 mg/kg alone) was 523 ng·h/mL, the AUC(0-t) (female, Balb/c, mouse, plasma, po, oral, PTX 20 mg/kg + FM04 45 mg/kg, read-out: PTX AUC(0-t) (converted)) was 9400 ng·h/mL and the Cmax (female, Balb/c, mouse, plasma, po, oral, PTX 20 mg/kg + FM04 45 mg/kg, read-out: PTX Cmax) was 3510 ng/mL. It also gave an AUC (female, Balb/c, mouse, plasma, po, oral, PTX 70 mg/kg + FM04 22 mg/kg) of 15500 ng·h/mL, an AUC(0-t) (female, Balb/c, mouse, plasma, po, oral, PTX 70 mg/kg + FM04 22 mg/kg, read-out: PTX AUC(0-t) (converted)) of 15500 ng·h/mL and a Cmax (female, Balb/c, mouse, plasma, po, oral, PTX 70 mg/kg + FM04 22 mg/kg, read-out: PTX Cmax) of 4950 ng/mL. It also gave an AUC(0-t) (female, Balb/c, mouse, plasma, po, oral, PTX 70 mg/kg + FM04 45 mg/kg, read-out: PTX AUC(0-t) (converted)) of 30000 ng·h/mL, a Cmax (female, Balb/c, mouse, plasma, po, oral, PTX 70 mg/kg + FM04 45 mg/kg, read-out: PTX Cmax) of 9760 ng/mL and a Tmax (female, Balb/c, mouse, plasma, oral, PTX 20 mg/kg + FM04 45 mg/kg, read-out: PTX Tmax (converted)) of 120 min. The “PTX AUC/Dose fold-change vs PTX alone” value [1] was 66, the “PTX Cmax fold-change vs PTX alone” value [1] was 26 and the “PTX AUC/Dose fold-change vs PTX alone” value [2] was 30. For the same molecule, the “PTX Cmax fold-change vs PTX alone” value [2] was 27, the “PTX AUC/Dose fold-change vs PTX alone” value [3] was 57 and the “PTX Cmax fold-change vs PTX alone” value [3] was 53. The “oral absorption of PTX” value (oral PTX 70 mg/kg with FM04 22 mg/kg) was 6.6%, the “oral absorption of PTX” value (oral PTX with FM04 45 mg/kg) was 14% and the “oral absorption of PTX” value (oral PTX without FM04) was 0.2%.
